Experiments:
MCF-7/ADR = assay: In vitro cytotoxicity, MCF-7/ADR; assay type: cell-based
Procedure: (§1) The microculture tetrazolium assay was used to test in vitro cytotoxicity. This assay is described in Plumb, J. A. et al., 1989 Cancer Research 49, 4435-4440, which is herein incorporated by reference. The cytotoxicity of compounds towards tumor cells is measured in vitro using the assay. This assay method is based upon the ability of live, but not dead cells to reduce the yellow water soluble dye 3-(4,5-dimethylthiazol-2-yl)-2,5-diphenyltetrazolium bromide (MTT) to its water insoluble purple formazan product.
(§2) Cells are plated out in 100 μl of culture medium in the microtiter plates at a density of around 1,500-4,000 cells per well. The plates are incubated overnight to allow the cells to become adherent after which the test compound is added (100 μl of appropriate dilution per well). The cells are incubated with test compound at 37° C. for 48 h after which the compound is replaced with fresh medium. After a further 48 h incubation at 37° C., 50 μl of MTT solution (2 mg/ml) is added to each well. The plates are incubated in the dark for 4 h at 37° C. after which the medium is removed. The MTT formazan product is extracted from the cells by the addition of 200 μl DMSO followed by 50 μl of Sorensen's buffer. The plates are shaken briefly and the absorbance at 570 nm is read using a Molecular Devices UV max plate reader. […]

MCF-7 = assay: In vitro cytotoxicity, MCF-7; assay type: cell-based
Procedure: as §1, §2

MAT-B/ADR = assay: In vitro cytotoxicity, MAT-B/ADR; assay type: cell-based; conditions: read-out: IC50 MAT-B/ADR
Procedure: as §1, §2

MAT-B = assay: In vitro cytotoxicity, MAT-B; assay type: cell-based; conditions: read-out: IC50 MAT-B
Procedure: as §1, §2

[1] = literature; cited from earlier work
[2] = literature; cited from earlier work; remark: listed apart in the source
[3] = test system: T47D (Ductal carcinoma of breast); assay: In vitro cytotoxicity, microculture tetrazolium (MTT) assay, T47D; assay type: cell-based, Human; conditions: Homo sapiens, 48 h with compound, further 48 h, Table 1
How it was run: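 Adherent cells (1,500-4,000/well) were exposed to compound in 1:3 dilutions from 100 μM to 1.7 nM, in quadruplicate, for 48 h at 37° C, followed by 48 h in fresh medium. MTT formazan was read at 570 nm, and data were fitted by four-parameter logistic on a 0-100% survival scale.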

VLB/OV3 = assay: Resistance ratio of SKVLB over SKOV3 cytotoxicity (VLB/OV3); assay type: cell-based, Human; conditions: ratio SKVLB to SKOV3; Table 1; 2880 min
Procedure: as §1
SKOV3 (Ovarian adenocarcinoma)--provided by Dr. V. Ling, Ontario Cancer Institute.
SKVLB (Ovarian; multidrug resistant)--Dr. V. Ling, Ontario Cancer Institute.
For each assay, doxorubicin is included as an inter-assay standard. This allows us to monitor the behaviour of the assay in general, and in particular, to check that the SKVLB line has maintained its resistant phenotype.
Cells are plated out in 100 μl of culture medium in the microtiter plates at a density of around 1,500-4,000 cells per well. The plates are incubated overnight to allow the cells to become adherent after which the test compound is added (100 μl of appropriate dilution per well). The cells are incubated with test compound at 37° C. for 48 h after which the compound is replaced with fresh medium. After a further 48 h incubation at 37° C., 50 μl of MTT solution (2 mg/ml) is added to each well. The plates are incubated in the dark for 4 h at 37° C. after which the medium is removed. The MTT formazan product is extracted from the cells by the addition of 200 μl DMSO followed by 50 μl of Sorensen's buffer. The plates are shaken briefly and the absorbance at 570 nm is read using a Molecular Devices UV max plate reader. Curves are fit to the MTT assay data using a four parameter logistic equation, and the data are normalized to fit a 0% to 100% survival scale.

Lox (Melanoma) = assay: In vitro cytotoxicity, microculture tetrazolium (MTT) assay, LOX; assay type: cell-based, Human; conditions: Homo sapiens, 48 h with compound, further 48 h, Table 1
How it was run: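 LOX melanoma cells, 1,500–4,000 per well, exposed to compound (1:3 dilutions, 100 μM to 1.7 nM) for 48 h at 37° C., then 48 h in fresh medium. MTT reduction read at 570 nm; four-parameter logistic fit normalized to 0–100% survival.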

[4] = test system: SKOV3 (Ovarian adenocarcinoma); assay: In vitro cytotoxicity, microculture tetrazolium (MTT) assay, SKOV3; assay type: cell-based, Human; conditions: Homo sapiens, SK-OV-3; SKOV3 ovarian adenocarcinoma; 48 h with compound, further 48 h, MTT; Table 1
How it was run: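 Cells plated overnight, then exposed to compound (1:3 dilutions, 100 μM to 1.7 nM, quadruplicate) 48 h at 37 °C, followed by 48 h in fresh medium. MTT 4 h, formazan extracted in DMSO/Sorensen's buffer pH 10.5, A570; four-parameter logistic fit on 0–100% survival scale.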

[5] = test system: SKVLB (Ovarian; multidrug resistant); assay: In vitro cytotoxicity, microculture tetrazolium (MTT) assay, SKVLB; assay type: cell-based, Human; conditions: Homo sapiens; SKVLB multidrug resistant ovarian; 48 h with compound, further 48 h, MTT; Table 1
How it was run: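 Multidrug-resistant SKVLB ovarian cells, 1,500–4,000 per well, exposed to compound (1:3 dilutions, 100 μM to 1.7 nM, quadruplicate) for 48 h at 37 °C, then 48 h in fresh medium. Viability by MTT reduction, formazan read at 570 nm; four-parameter logistic fit on a 0–100% survival scale.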

[6] = test system: HT 29 (Colon adenocarcinoma); assay: In vitro cytotoxicity, microculture tetrazolium (MTT) assay, HT29; assay type: cell-based, Human; conditions: Homo sapiens, HT-29, 48 h with compound, further 48 h, Table 1
How it was run: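 HT29 cells exposed to compound (1:3 series, 100 μM to 1.7 nM, quadruplicate) for 48 h at 37 °C, then 48 h in fresh medium. Viability by MTT reduction, formazan absorbance at 570 nm; four-parameter logistic fit on 0-100% survival scale.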

Which “effect in sensitive versus adriamycin resistant cell line” value (MCF-7/ADR; breast cancer, MCF-7) does the source give for CC(=O)[C@H]1CC2=C(C(=O)c3ccccc3C2=O)[C@H](OC2C[C@H](NC(=O)C(F)(F)F)[C@H](O)[C@H](C)O2)O1 (stereo partly drawn) [BCH1146, (1'S,1S,3R)-Methyl (5,10-dioxo-1-(2',3',6'-trideoxy-3'-trifluoroacetamido-4'-hydroxy-L-lyxohexopyranose)-3,4,5,10-tetrahydronaphtho [2,3-C]pyran-3-yl) ketone] here?
The value was “nearly as effective in the sensitive and adriamycin resistant cell line”.

And the “potency relative to adriamycin” value (MCF-7; breast cancer, MCF-7)?
Its value is “less potent than adriamycin”.

Which IC50 (MCF-7/ADR; Homo sapiens, NCI/ADR-RES, read-out: IC50 MCF-7/ADR) does the source give for COc1cccc2c1C(=O)c1c(O)c3c(c(O)c1C2=O)C[C@@](O)(C(=O)CO)C[C@@H]3O[C@H]1C[C@H](N)[C@H](O)[C@H](C)O1 [Adriamycin, reference compound] here?
The IC50 was 6500 nM.

What about the IC50 (MAT-B/ADR) of the same compound?
The IC50 was 2500 nM.

What about the IC50 (MAT-B) of the same compound?
The IC50 was 4.6 nM.

What about the IC50 (MCF-7; Homo sapiens, MCF7, read-out: IC50 MCF-7) of the same compound?
Its IC50 is 5 nM.

Which antitumor activity [1] does the source give for CC1O[C@H]2CC(=O)O[C@H]2C2=C1C(=O)c1c(O)c3c(c(O)c1C2=O)[C@H]1C[C@@H](O)[C@]3(O)[C@@H](C)O1 (stereo partly shown) [Granaticin] here?
The antitumor activity was “reported to show antitumor activity”.

For CC1OC2OC(=O)OC2C2=C1C(=O)c1c(O)cccc1C2=O (stereo not shown) [kalafungin], which “antibacterial as well as antifungal activity” value [2] is on record?
Its value is “potent antibacterial as well as antifungal activity”.

With C[C@@H]1O[C@@H](CC(=O)O)CC2=C1C(=O)c1c(O)cccc1C2=O [nanaomycin A] as the compound, how does the “antibacterial as well as antifungal activity” value [2] read?
Its value is “potent antibacterial as well as antifungal activity”.

Which antitumor activity [1] does the source give for COC(=O)C1CC2=C(C(=O)c3c(cc4ccccc4c3O)C2=O)C(O[C@H]2C[C@H](NC(=O)C(F)(F)F)[C@H](O)[C@H](C)O2)O1 (stereo partly shown) [pyranoanthraquinone (H)] here?
Its antitumor activity is “found to possess antitumor activity”.

Which IC50 [3] does the source give for CC(=O)[C@@H]1CC2=C(C(=O)c3ccccc3C2=O)[C@@H](O[C@H]2C[C@H](NC(=O)C(F)(F)F)[C@H](O)[C@H](C)O2)O1 [BCH1184, (1'S,1R,3S)-Methyl (5,10-dioxo-1-(2',3',6'-trideoxy-3'-trifluoroacetamido-4'-hydroxy-L-lyxohexopyranose)-3,4,5,10-tetrahydronaphtho [2,3-C]pyran-3-yl) ketone] here?
The IC50 was 284 to 530 nM.

What about the VLB/OV3 (VLB/OV3) of the same compound?
The VLB/OV3 was 4.75-22.34.

What about the IC50 (Lox (Melanoma)) of the same compound?
Its IC50 is 18.6 to 228 nM.

What about the IC50 [4] of the same compound?
The IC50 was 5 to 63.1 nM.

What about the IC50 [5] of the same compound?
Its IC50 is 53.6 to 300 nM.

And the IC50 [6]?
The IC50 was 2.3 to 16.1 nM.
